Test results from US20140065697A1, “CELLS AND METHODS FOR PRODUCING ISOBUTYRIC ACID” (Regents of the University of Minnesota, priority 2011, published 2014).
Where two headings read alike, the source gives them in different places.

Tests used:
[1] = molecular target: T1, PadA (Escherichia coli, UniProt P80668); experiment: Measurement of PadA activity (NADH generation at 340 nm, Michaelis-Menten fit); format: biochemical, E. coli; details: for kcat: substrate isobutyraldehyde
T1 construct: […]; 6xHis (N); made in house; host or cells: E. coli BL-21 harboring pREP4; plasmid pIBA10 (pQE9)
T1 sequence (P80668 1-499): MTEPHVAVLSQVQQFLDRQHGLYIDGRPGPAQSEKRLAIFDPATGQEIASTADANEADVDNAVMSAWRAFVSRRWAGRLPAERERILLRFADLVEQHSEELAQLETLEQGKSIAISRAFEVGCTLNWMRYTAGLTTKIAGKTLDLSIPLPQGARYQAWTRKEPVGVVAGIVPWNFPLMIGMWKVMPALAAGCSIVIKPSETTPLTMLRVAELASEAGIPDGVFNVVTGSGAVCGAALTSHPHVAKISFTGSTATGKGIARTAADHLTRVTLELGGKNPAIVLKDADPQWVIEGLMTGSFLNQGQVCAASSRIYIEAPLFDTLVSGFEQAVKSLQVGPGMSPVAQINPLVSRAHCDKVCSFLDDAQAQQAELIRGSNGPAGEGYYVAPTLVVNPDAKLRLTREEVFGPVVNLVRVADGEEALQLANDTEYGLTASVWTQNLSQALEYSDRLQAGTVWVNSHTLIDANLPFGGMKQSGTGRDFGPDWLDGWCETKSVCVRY
Experimental: (§1) Because it produced the greatest amount of isobutyrate, we selected PadA for further study. To characterize the enzyme, PadA was tagged with an N-terminal 6×His-tag, overexpressed, and purified through a Ni-NTA column. The kinetic parameters for conversion of isobutyraldehyde by PadA were determined by measuring the reduction of NAD+ to NADH at 340 nm. PadA activity toward isobutyraldehyde is much lower than that toward its natural physiological substrate phenylacetaldehyde.
(§2) pIBA10 was transformed into BL-21 E. coli host harboring the pREP4 plasmid (Qiagen; Valencia, Calif.). An overnight pre-culture was diluted 100-fold in 300 mL 2×YT rich medium containing 50 mg/L ampicillin, 25 mg/L kanamycin and 0.1 mM IPTG. Expression of recombinant protein was performed at 30° C. overnight.
(§3) The cell pellet was sonicated in 30 mL lysis buffer (250 mM NaCl, 2 mM DTT, 5 mM imidazole and 50 mM Tris pH 8.0). The cellular debris was removed by centrifugation at 15,000 RPM for 20 minutes. The supernatant was passed through a Ni-NTA column. Then the column was washed with 10 mL wash buffer (250 mM NaCl, 20 mM imidazole and 50 mM Tris pH 8.0) four times. Finally, the target protein was eluted with 10 mL elution buffer (250 mM NaCl, 250 mM imidazole and 50 mM Tris pH 8.0). The eluate was buffer-exchanged and concentrated into storage buffer ([…] tris buffer, pH 8.0, and 20% glycerol) using AMICON ULTRA centrifugal filter (Millipore Corp.; Billerica, Mass.). Protein concentration was determined by measuring the UV absorbance at 280 nm (extinction coefficient, 75070 cm^−1 M^−1). The concentrated protein solution was aliquoted (100 μl) into PCR tubes and flash frozen at −80° C. for long term storage.
(§4) Substrate isobutyraldehyde was purchased from Fisher Scientific International, Inc. (Hampton, N.H.), and NAD^+ was from New England Biolabs, Inc., (Ipswich, Mass.). The reaction mixture contained 0.5 mM NAD^+ and 0.2-4 mM isobutyraldehyde in assay buffer (50 mM NaH2PO4, pH 8.0, 1 mM DTT) with a total volume of 80 μl. The reactions were started by adding 2 μl […] (final enzyme concentration 25 nM), and the generation of NADH was monitored at 340 nm (extinction coefficient, 6.22 mM^−1 cm^−1). Kinetic parameters (kat and Km) were determined by fitting initial velocity data to the Michaelis-Menten equation using Origin software.

[2] = molecular target: YqhD (Escherichia coli, UniProt Q46856); details: Atsumi et al., 2010; cited from earlier work
YqhD, sequence (Q46856 whole entry): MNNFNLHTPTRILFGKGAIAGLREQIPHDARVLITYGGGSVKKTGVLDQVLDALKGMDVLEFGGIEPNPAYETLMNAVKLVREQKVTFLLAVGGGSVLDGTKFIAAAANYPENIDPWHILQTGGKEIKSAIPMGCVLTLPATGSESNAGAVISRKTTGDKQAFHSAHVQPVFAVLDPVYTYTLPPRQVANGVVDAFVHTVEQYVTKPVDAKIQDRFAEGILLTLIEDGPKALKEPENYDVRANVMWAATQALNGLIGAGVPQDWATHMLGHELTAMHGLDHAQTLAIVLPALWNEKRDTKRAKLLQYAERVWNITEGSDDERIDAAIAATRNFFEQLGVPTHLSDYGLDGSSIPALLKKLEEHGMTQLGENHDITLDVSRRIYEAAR

[3] = test system: CC(C)C=O; experiment: Measurement of PadA activity (NADH generation at 340 nm, Michaelis-Menten fit); format: biochemical, E. coli; details: other: PadA, substrate isobutyraldehyde, 0.5 mM NAD+, pH 8.0, 30.0 °C
Experimental: as §1, §2, §3, §4

[4] = molecular target: T1, PadA; details: natural substrate phenylacetaldehyde (asterisked line); cited from earlier work

## CC(C)C=O [Isobutyraldehyde, isobutyraldehyde]
[1]
  Km value higher than toward phenylacetaldehyde: 230 fold
  kcat value lower than toward phenylacetaldehyde: 4 fold
  kcat: 1494 ± 30 min⁻¹
[1]; listed as isobutyraldehyde
  kcat: 1494 min⁻¹
[2]
  Km: 1.8 mM

## PadA (Escherichia coli K-12)
[3]
  Km: 2.67 mM

## O=CCc1ccccc1 [Phenylacetaldehyde, phenylacetaldehyde]
[1]
  specificity constant kcat/Km higher than towards isobutyraldehyde: ~1000 fold
[4]
  Km: 11.6 µM
  kcat: 5810 min⁻¹
